Measured values published in patent US7919127B2, “Pulsatilla spp. extracts effective in brain function” (priority 2005, dated 2011).
“And” between values parts separate entries of the source, which are not always exact repeats. Equal entries are not always repeated.

Tests used:
[1] = test system: α-secretase; experiment: Increase of α-secretase activity (sAPPα amount, western blot densitometry, W4 cell line); type: cell-based; conditions: positive control, final concentration 1 mM, W4 cells, negative control average = 100.0
Experimental: To study the effect of 70% methanol solution fraction obtained from Example 2 on the above-mentioned APP process, an experiment was conducted as follows using W4 cell line which produces APP in large amount.
The cells of W4 cell line were treated with 70% methanol solution fraction and then cultured for about 12 hours.

[2] = test system: rats treated with scopolamine; experiment: Passive avoidance test, scopolamine-induced memory impairment; type: in vivo, rat; conditions: oral, 30 mg/L; untreated control = 100%, scopolamine group = 0%
From the text: The experimental device used was a shuttle box 50 cm (W)×15 cm (L)×40 cm (H). The shuttle box was divided into two rooms via a guillotine door, where one room was a light room provided with illumination while the other room was a dark room covered entirely with a black cloth thereby allowing the difference in illuminating effect. First, a rat was placed in the light room and the guillotine door was opened while the light was being turned on. Then, the rat entered the dark room within 20 seconds to seek a dark place by instinct and as soon as the rat entered the dark room the guillotine door was closed. […] The next day, the above trained rats were placed again into the light room with the light on and allowed to enter the dark room. Here, the rats were subject to an electric shock of 0.8 mA for 3 seconds via an electronic grid installed on the bottom of the room. Twenty four hours after the above acquisition trial, the rats were again placed into the light room with the light on and allowed to enter the dark room. Here, the normal rats hesitated to enter the dark room by remembering the electric shock of the previous day. The latency time was measured by setting up the maximum latency time at 300 seconds. […]

SMILES: CCCC(=O)O[C@@H]1[C@@H](C)[C@@]2(O)[C@@H](C=C(CO)C[C@]3(O)C(=O)C(C)=C[C@@H]23)[C@@H]2C(C)(C)[C@]12OC(=O)CCC [PDBu, Phorbol 12,13-dibutyrate]
- Relative Density (sAPPα), Average ([1]; average of 3 trials): 289.3
- Relative Density (sAPPα) ([1]; individual trials): 226.5 and 314.1 and 327.2

SMILES: Nc1c2c(nc3ccccc13)CCCC2 [tacrine]
- prevention of memory impairment [2]: 35%
